Key:
[1] = target: 5-hydroxytryptamine receptor 1E (Homo sapiens) (UniProt P28566); assay: Inhibition of 5-HT1E receptor (unknown origin) at 10 uM by PDSP assay relative to control
[2] = target: T1, 5-hydroxytryptamine receptor 1A (Homo sapiens) (UniProt P08908); assay: Inhibition of 5-HT1A receptor (unknown origin) at 10 uM by PDSP assay relative to control
T1 sequence (whole entry): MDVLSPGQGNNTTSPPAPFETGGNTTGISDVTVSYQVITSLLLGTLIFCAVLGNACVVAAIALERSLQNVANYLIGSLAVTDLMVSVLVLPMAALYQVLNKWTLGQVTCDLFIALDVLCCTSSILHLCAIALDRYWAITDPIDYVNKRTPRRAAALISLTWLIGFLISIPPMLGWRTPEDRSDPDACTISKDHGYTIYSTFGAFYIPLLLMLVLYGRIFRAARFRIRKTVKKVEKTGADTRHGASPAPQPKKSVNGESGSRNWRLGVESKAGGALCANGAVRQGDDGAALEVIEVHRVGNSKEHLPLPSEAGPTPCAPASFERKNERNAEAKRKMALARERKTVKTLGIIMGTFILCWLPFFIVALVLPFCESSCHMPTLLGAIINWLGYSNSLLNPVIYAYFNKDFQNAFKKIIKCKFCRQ

[3] = target: D(1A) dopamine receptor (Homo sapiens) (UniProt P21728); assay: Inhibition of dopamine D1 receptor (unknown origin) at 10 uM by PDSP assay relative to control
Sequence of D(1A) dopamine receptor (Homo sapiens) (P21728 whole entry): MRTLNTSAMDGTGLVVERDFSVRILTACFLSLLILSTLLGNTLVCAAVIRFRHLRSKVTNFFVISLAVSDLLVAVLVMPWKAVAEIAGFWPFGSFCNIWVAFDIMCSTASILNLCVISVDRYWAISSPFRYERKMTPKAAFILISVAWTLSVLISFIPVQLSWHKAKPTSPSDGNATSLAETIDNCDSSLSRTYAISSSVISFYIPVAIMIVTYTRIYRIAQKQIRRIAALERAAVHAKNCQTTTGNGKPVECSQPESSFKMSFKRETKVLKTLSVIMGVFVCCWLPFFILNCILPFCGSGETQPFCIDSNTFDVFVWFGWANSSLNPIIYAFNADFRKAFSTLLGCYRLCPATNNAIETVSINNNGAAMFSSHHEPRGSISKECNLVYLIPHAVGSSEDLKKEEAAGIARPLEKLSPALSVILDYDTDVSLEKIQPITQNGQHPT

[4] = target: Beta-3 adrenergic receptor (Homo sapiens) (UniProt P13945); assay: Inhibition of adrenergic beta3 receptor (unknown origin) at 10 uM by PDSP assay relative to control
Sequence of Beta-3 adrenergic receptor (Homo sapiens) (P13945 whole entry, looked up): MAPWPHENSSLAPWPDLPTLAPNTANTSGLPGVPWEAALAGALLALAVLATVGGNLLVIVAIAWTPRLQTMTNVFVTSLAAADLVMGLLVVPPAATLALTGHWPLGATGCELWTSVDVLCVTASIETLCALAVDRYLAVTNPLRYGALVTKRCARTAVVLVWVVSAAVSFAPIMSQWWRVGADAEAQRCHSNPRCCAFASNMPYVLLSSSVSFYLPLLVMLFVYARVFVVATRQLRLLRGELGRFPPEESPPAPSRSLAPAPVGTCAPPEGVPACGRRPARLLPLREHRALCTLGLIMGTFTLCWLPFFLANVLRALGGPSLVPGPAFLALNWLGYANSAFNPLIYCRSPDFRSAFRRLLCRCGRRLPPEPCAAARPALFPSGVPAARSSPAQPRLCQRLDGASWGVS

[5] = target: Beta-2 adrenergic receptor (Homo sapiens) (UniProt P07550); assay: Inhibition of adrenergic beta2 receptor (unknown origin) at 10 uM by PDSP assay relative to control
Sequence of Beta-2 adrenergic receptor (Homo sapiens) (P07550 whole entry, looked up): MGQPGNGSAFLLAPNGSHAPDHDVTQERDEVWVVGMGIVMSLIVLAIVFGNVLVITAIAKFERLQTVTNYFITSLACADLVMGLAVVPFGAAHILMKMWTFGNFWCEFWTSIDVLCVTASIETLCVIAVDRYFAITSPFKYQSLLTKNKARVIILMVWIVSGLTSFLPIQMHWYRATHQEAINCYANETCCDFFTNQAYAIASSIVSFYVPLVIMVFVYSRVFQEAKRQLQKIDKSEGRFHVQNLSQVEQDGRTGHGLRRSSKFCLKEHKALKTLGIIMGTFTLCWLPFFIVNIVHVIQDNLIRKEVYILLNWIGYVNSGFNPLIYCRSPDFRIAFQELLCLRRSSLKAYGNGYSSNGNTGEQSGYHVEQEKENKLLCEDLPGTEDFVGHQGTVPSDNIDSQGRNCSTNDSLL

[6] = target: T2, Alpha-1D adrenergic receptor (Homo sapiens) (UniProt P25100); assay: Inhibition of adrenergic alpha1D receptor (unknown origin) at 10 uM by PDSP assay relative to control
T2 sequence (whole entry): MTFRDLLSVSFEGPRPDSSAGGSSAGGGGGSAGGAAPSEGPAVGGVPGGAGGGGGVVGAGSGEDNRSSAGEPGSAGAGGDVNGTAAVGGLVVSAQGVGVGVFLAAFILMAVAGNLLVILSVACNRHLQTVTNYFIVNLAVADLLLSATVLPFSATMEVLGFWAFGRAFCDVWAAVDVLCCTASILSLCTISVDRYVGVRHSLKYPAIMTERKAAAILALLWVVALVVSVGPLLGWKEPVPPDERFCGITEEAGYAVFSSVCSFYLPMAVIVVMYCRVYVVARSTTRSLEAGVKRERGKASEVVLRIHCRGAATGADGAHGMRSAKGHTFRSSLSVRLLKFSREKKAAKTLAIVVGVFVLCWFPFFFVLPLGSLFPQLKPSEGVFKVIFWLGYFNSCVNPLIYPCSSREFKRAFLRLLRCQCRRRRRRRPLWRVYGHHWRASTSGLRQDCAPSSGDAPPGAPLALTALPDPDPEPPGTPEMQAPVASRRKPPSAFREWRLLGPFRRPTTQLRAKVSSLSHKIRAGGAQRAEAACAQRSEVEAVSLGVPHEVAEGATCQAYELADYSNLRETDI

[7] = Displacement of [3H]-DTG from sigma-2 receptor in rat PC12 cells; assay type: cell-based; settings: pc-12
[8] = target: T3, 5-hydroxytryptamine receptor 3A (Homo sapiens) (UniProt P46098); assay: Inhibition of 5-HT3 receptor (unknown origin) at 10 uM by PDSP assay relative to control
T3 sequence (whole entry): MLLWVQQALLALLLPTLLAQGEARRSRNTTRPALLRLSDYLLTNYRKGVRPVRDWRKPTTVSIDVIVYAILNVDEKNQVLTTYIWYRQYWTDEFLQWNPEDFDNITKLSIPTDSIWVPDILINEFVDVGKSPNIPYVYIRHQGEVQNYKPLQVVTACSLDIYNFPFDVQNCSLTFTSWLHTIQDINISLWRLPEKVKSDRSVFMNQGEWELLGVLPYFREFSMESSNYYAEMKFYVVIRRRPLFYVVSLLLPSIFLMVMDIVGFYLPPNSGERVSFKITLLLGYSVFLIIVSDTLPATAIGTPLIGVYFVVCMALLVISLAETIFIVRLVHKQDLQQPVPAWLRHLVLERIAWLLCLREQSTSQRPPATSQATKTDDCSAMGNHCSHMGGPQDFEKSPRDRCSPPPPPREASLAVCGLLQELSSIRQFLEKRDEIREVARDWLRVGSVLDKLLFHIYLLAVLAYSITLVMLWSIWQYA

[9] = target: T4, 5-hydroxytryptamine receptor 2C (Homo sapiens) (UniProt P28335); assay: Inhibition of 5-HT2C receptor (unknown origin) at 10 uM by PDSP assay relative to control
T4 sequence (whole entry): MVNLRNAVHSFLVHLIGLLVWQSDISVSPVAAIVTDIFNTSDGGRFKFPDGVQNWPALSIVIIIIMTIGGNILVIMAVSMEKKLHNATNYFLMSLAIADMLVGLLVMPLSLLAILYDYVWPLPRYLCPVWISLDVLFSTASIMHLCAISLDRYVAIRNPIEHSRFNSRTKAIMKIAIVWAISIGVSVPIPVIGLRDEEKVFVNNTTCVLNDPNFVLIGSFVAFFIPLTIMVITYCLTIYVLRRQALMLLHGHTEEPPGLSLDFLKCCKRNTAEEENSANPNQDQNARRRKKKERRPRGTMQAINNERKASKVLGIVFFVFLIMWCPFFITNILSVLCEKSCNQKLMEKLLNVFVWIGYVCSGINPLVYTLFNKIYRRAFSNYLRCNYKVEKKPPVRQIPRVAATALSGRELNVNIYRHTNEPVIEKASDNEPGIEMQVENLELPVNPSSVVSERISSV

[10] = target: 5-hydroxytryptamine receptor 1B (Homo sapiens, UniProt P28222); assay: Inhibition of 5-HT1B receptor (unknown origin) at 10 uM by PDSP assay relative to control
Sequence of 5-hydroxytryptamine receptor 1B (P28222 whole entry): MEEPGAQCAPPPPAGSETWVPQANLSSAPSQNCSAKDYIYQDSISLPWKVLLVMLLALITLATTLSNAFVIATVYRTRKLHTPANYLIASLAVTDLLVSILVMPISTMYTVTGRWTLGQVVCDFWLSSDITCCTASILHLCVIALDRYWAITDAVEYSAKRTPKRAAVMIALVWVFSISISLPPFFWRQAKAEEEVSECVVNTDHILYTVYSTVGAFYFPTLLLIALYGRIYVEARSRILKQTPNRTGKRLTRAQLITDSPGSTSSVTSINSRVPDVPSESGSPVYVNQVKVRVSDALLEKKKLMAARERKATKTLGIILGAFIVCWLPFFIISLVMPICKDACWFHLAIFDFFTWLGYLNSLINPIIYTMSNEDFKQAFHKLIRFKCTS

[11] = target: T5, D(4) dopamine receptor (Homo sapiens) (UniProt P21917); assay: Inhibition of dopamine D4 receptor (unknown origin) at 10 uM by PDSP assay relative to control
T5 sequence (whole entry): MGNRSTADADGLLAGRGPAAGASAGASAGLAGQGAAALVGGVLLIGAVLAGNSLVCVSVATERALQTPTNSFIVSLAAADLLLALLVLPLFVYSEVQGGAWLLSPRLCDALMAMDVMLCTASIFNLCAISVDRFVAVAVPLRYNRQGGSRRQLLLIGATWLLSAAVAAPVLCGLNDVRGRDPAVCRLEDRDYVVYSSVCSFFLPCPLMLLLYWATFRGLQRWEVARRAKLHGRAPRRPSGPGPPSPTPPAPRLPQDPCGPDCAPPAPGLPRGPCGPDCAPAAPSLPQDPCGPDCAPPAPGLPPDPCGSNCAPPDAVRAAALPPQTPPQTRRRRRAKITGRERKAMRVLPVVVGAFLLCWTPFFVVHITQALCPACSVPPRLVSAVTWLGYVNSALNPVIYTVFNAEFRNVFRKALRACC

Sequence of 5-hydroxytryptamine receptor 1E (Homo sapiens) (P28566 whole entry): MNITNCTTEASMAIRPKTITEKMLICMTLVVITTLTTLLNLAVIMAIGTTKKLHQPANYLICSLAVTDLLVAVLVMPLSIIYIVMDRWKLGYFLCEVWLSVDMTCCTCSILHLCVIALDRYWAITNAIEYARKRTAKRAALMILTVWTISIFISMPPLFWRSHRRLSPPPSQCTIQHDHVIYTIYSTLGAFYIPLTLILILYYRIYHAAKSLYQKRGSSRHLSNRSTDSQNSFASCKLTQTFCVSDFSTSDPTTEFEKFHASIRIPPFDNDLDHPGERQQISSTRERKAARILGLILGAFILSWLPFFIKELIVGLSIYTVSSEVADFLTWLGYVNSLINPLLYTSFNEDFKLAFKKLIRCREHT

Row | Structure (SMILES) | inhibition [1] [%] | inhibition [2] [%] | inhibition [3] [%] | inhibition [4] [%] | inhibition [5] [%] | inhibition [6] [%] | Ki [7] [µM] | inhibition [8] [%] | inhibition [9] [%] | inhibition [10] [%] | inhibition [11] [%]
1 | c1ccc(CCN[C@H]2C3C4CC5C6C4CC3C6C52)cc1 (some centres not stated) | < 50 | < 50 | < 50 | < 50 | < 50 | < 50 | 0.0093 | < 50 | < 50 | – | –
2 | CN(Cc1ccc2c(c1)OCO2)[C@H]1C2C3CC4C5C3CC2C5C41 (some centres not stated) | < 50 | < 50 | < 50 | < 50 | < 50 | < 50 | 0.062 | < 50 | < 50 | < 50 | < 50
3 | COc1ccc(CN(C)[C@H]2C3C4CC5C6C4CC3C6C52)cc1OC (some centres not stated) | < 50 | < 50 | < 50 | < 50 | < 50 | < 50 | 0.027 | < 50 | < 50 | < 50 | < 50
4 | CN(Cc1cccc(F)c1)[C@H]1C2C3CC4C2C(=O)C2C4C3C21 (some centres not stated) | < 50 | – | < 50 | < 50 | < 50 | < 50 | 0.168 | < 50 | < 50 | < 50 | < 50
5 | CN(Cc1ccccc1)[C@H]1C2C3CC4C2C(=O)C2C4C3C21 (some centres not stated) | < 50 | < 50 | < 50 | < 50 | < 50 | < 50 | 0.217 | < 50 | < 50 | < 50 | < 50
6 | c1ccc(CCN[C@H]2C3C4CC5C6C4CC3C6C52)nc1 (some centres not stated) | < 50 | < 50 | < 50 | < 50 | < 50 | < 50 | 0.0086 | < 50 | < 50 | < 50 | –
7 | CN(CCc1ccccn1)[C@H]1C2C3CC4C2C(=O)C2C4C3C21 (some centres not stated) | < 50 | < 50 | < 50 | < 50 | < 50 | < 50 | 0.633 | < 50 | < 50 | < 50 | < 50
8 | c1cc2c(cc1CN[C@H]1C3C4CC5C6C4CC3C6C51)OCO2 (some centres not stated) | < 50 | < 50 | < 50 | < 50 | < 50 | < 50 | 0.015 | < 50 | < 50 | < 50 | < 50
9 | CN(Cc1cccnc1)[C@H]1C2C3CC4C5C3CC2C5C41 (some centres not stated) | < 50 | < 50 | < 50 | < 50 | < 50 | < 50 | 0.881 | < 50 | < 50 | < 50 | < 50
10 | CN(CCc1ccccc1)[C@H]1C2C3CC4C5C3CC2C5C41 (some centres not stated) | < 50 | < 50 | < 50 | < 50 | < 50 | < 50 | 0.016 | < 50 | < 50 | < 50 | < 50
11 | CN(Cc1cccnc1)[C@H]1C2C3CC4C2C(=O)C2C4C3C21 (some centres not stated) | < 50 | < 50 | < 50 | < 50 | < 50 | < 50 | 2.63 | < 50 | < 50 | < 50 | < 50
12 | c1ccc(CN[C@H]2C3C4CC5C6C4CC3C6C52)cc1 (some centres not stated) | < 50 | < 50 | < 50 | < 50 | < 50 | < 50 | 0.019 | < 50 | < 50 | < 50 | < 50
13 | CN(CCc1ccccc1)[C@H]1C2C3CC4C2C(=O)C2C4C3C21 (some centres not stated) | < 50 | < 50 | < 50 | < 50 | < 50 | < 50 | 0.172 | < 50 | < 50 | < 50 | < 50
14 | COc1cc(CN[C@H]2C3C4CC5C6C4CC3C6C52)cc(OC)c1OC (some centres not stated) | < 50 | < 50 | < 50 | < 50 | < 50 | < 50 | 0.627 | < 50 | < 50 | < 50 | < 50
15 | COc1ccc(CN[C@H]2C3C4CC5C6C4CC3C6C52)cc1OC (some centres not stated) | < 50 | < 50 | < 50 | < 50 | < 50 | < 50 | 0.025 | < 50 | < 50 | < 50 | < 50
16 | CN(CCc1cccc(F)c1)[C@H]1C2C3CC4C2C(=O)C2C4C3C21 (some centres not stated) | < 50 | < 50 | < 50 | < 50 | < 50 | < 50 | 0.055 | < 50 | < 50 | < 50 | < 50

From ChEMBL document CHEMBL2429832, “N-substituted 8-aminopentacyclo[5.4.0.0(2,6).0(3,10).0(5,9)]undecanes as σ receptor ligands with potential neuroprotective effects” (Bioorg Med Chem, 2013)
